Measurements: patent US10618918B2, “Substituted boronic acids as antimicrobials” (priority 2015, dated 2020)

Key:
[1] = tested on: KP1086 OXA-48; assay: Biapenem potentiation (MPC@1), strain KP1086 OXA-48; type: cell-based; conditions: minimum BLI concentration inhibiting growth with biapenem 1 μg/mL; tested up to 40 μg/mL
Method: (§1) Biapenem was present in the test medium at 1 μg/mL. […] Table 3 summarizes the BLI potency of biapenem potentiation (MPC@1) for two strains overexpressing class A (KPC) and class D (OXA-48) carbapenemases. Biapenem MIC for each strain is also shown.

[2] = tested on: ECL1002; assay: Aztreonam potentiation (MPC@4), strain ECL1002; conditions: minimum BLI concentration inhibiting growth with aztreonam 4 μg/mL; tested up to 40 μg/mL
[3] = tested on: KP1009 CTX-M-15; assay: Aztreonam potentiation (MPC@4), strain KP1009 CTX-M-15
[4] = tested on: KP1005 CTX-M-14; assay: Tigemonam potentiation (MPC@4), strain KP1005 CTX-M-14
[5] = tested on: ec308 SHV-5; assay: Aztreonam potentiation (MPC@4), strain ec308 SHV-5
[6] = tested on: EC1010 CMY-6; assay: Aztreonam potentiation (MPC@4), strain EC1010 CMY-6
[7] = tested on: PAM1154/KPC-2; assay: Biapenem potentiation MPC64 in PAM1154/KPC-2 (efflux deficient, lacks MexAB-OprM); type: cell-based, Pseudomonas aeruginosa
Method: (§2) Efflux of BLIs from Pseudomonas aeruginosa by the MexAB-OprM efflux pump was also evaluated. The plasmid expressing the gene encoding KPC-2 was introduced into two strains of P. aeruginosa, PAM1032 and PAM 1154 that overexpressed or lacked MexAB-OprM, respectively. […] Potency of BLIs to potentiate biapenem in these strains was determined.

[8] = tested on: AB1053 OXA-72; assay: Meropenem potentiation (MPC@8), strain AB1053 OXA-72; type: cell-based, Acinetobacter baumannii; conditions: minimum BLI concentration inhibiting growth with meropenem 8 μg/mL; tested up to 20 μg/mL
[9] = tested on: KP1010 SHV-12; assay: Aztreonam potentiation (MPC@4), strain KP1010 SHV-12
[10] = target: purified class A, C and D enzymes (β-lactamases) (Klebsiella pneumoniae, UniProt Q9F663); assay: biochemical; type: biochemical
[11] = target: purified class A, C and D enzymes (β-lactamases) (Enterobacter cloacae, UniProt P05364); assay: biochemical; type: biochemical
[12] = target: purified class A, C and D enzymes (β-lactamases) (Klebsiella pneumoniae, UniProt Q6XEC0); assay: biochemical; type: biochemical
[13] = biochemical; type: biochemical
[14] = target: T1, purified class A, C and D enzymes (β-lactamases) (Pseudomonas aeruginosa, UniProt P24735); assay: biochemical; type: biochemical
T1 construct: rows headed: Ki (Pa-AmpC, NCF), uM; other: purified Pa-AmpC; nitrocefin (NCF) as reporter substrate

[15] = target: T2, purified class A, C and D enzymes (β-lactamases) (UniProt P0AD64, L31Q/G234S/E235K, species not given); assay: biochemical; type: biochemical; conditions: read-out: Ki (SHV-12, NCF); purified SHV-12; nitrocefin (NCF) as reporter substrate
T2 construct: Ki (SHV-12, NCF), uM; other: purified SHV-12; nitrocefin (NCF) as reporter substrate
T2 sequence (P0AD64 1-286 L31Q/G234S/E235K): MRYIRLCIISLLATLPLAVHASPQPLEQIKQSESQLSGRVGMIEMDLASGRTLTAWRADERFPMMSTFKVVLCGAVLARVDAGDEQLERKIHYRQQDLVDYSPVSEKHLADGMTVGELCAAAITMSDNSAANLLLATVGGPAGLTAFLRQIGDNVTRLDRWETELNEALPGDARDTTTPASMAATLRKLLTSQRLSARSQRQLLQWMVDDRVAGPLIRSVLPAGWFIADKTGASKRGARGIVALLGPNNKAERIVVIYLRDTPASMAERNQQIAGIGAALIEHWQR

[16] = target: purified class A, C and D enzymes (β-lactamases) (Escherichia coli, UniProt Q9L5C7); assay: biochemical; type: biochemical
[17] = tested on: PAM1032/KPC-2; assay: Biapenem potentiation MPC64 in PAM1032/KPC-2 (efflux proficient, overexpresses MexAB-OprM); type: cell-based, Pseudomonas aeruginosa
Method: as §2

[18] = tested on: ec302 TEM-10; assay: Aztreonam potentiation (MPC@4), strain ec302 TEM-10
[19] = tested on: KP1004 KPC-2; assay: Aztreonam potentiation (MPC@4), strain KP1004 KPC-2
[20] = tested on: KP1004 KPC-2; assay: Biapenem potentiation (MPC@1), strain KP1004 KPC-2; type: cell-based; conditions: minimum BLI concentration inhibiting growth with biapenem 1 μg/mL; tested up to 40 μg/mL
Method: as §1

[21] = tested on: AB1054 OXA-23; assay: Meropenem potentiation (MPC@8), strain AB1054 OXA-23; type: cell-based, Acinetobacter baumannii
[22] = tested on: KP1005 CTX-M-14; assay: Aztreonam potentiation (MPC@4), strain KP1005 CTX-M-14; conditions: read-out: Aztreonam MIC
[23] = tested on: ECL1002; assay: Tigemonam potentiation (MPC@4), strain ECL1002; type: cell-based; conditions: strain ECL1002; tigemonam alone
[24] = tested on: ec308 SHV-5; assay: Tigemonam potentiation (MPC@4), strain ec308 SHV-5; type: cell-based; conditions: strain ec308 SHV-5; tigemonam alone
[25] = tested on: ec302 TEM-10; assay: Tigemonam potentiation (MPC@4), strain ec302 TEM-10; type: cell-based; conditions: strain ec302 TEM-10; tigemonam alone
[26] = tested on: EC1010 CMY-6; assay: Tigemonam potentiation (MPC@4), strain EC1010 CMY-6; type: cell-based; conditions: strain EC1010 CMY-6; tigemonam alone
[27] = tested on: KP1009 CTX-M-15; assay: Tigemonam potentiation (MPC@4), strain KP1009 CTX-M-15
[28] = tested on: KP1010 SHV-12; assay: Tigemonam potentiation (MPC@4), strain KP1010 SHV-12; conditions: strain KP1010 SHV-12; tigemonam alone
[29] = minimum BLI concentration inhibiting growth with aztreonam 4 μg/mL, tested up to 40 μg/mL

Chain of purified class A, C and D enzymes (β-lactamases) (Escherichia coli, UniProt Q9L5C7) (Q9L5C7 entry or part of it): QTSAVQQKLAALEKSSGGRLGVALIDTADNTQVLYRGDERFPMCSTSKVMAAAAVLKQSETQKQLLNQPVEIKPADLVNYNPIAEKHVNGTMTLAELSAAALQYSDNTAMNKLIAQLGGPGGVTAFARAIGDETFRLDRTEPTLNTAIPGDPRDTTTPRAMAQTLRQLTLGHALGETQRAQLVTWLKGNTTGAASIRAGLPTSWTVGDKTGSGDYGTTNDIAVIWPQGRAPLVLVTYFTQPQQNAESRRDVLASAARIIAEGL
Chain of purified class A, C and D enzymes (β-lactamases) (Enterobacter cloacae, UniProt P05364) (P05364 21-381): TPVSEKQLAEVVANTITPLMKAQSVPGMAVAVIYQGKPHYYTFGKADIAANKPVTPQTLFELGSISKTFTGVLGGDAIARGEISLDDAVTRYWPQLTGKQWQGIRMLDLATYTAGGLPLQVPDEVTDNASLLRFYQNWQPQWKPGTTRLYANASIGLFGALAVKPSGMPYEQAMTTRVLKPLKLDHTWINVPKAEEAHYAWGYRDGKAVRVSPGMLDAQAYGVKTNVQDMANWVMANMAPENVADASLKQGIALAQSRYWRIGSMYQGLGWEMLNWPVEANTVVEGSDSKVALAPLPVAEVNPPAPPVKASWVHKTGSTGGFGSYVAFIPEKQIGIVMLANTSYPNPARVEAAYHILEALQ
T1 sequence (P24735 whole entry): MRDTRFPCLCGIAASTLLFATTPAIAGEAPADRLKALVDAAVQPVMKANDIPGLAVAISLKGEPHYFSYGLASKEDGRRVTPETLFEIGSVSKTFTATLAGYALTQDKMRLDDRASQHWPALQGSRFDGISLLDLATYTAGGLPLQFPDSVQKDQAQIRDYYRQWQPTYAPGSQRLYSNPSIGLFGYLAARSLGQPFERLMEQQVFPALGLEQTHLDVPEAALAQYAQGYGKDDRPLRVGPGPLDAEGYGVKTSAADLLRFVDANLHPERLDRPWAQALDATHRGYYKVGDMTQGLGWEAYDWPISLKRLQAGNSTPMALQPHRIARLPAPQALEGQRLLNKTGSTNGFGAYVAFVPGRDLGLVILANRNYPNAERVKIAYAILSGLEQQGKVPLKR

SMILES: COc1ccc2c(c1C(=O)[O-])O[B-](O)(O)CC2.[Na+].[Na+] [Compound 7, DISODIUM; 4,4-DIHYDROXY-8-METHOXY-5-OXA-4-BORANUIDABICYCLO[4.4.0]DECA-1(6),7,9-TRIENE-7-CARBOXYLATE]
- BPM MPC1 OXA-48 KP1086 [1]: X (X = MPC@1 ≤ 5 μg/mL)
- AZT MPC4 ECL1002 [2]: X (X = MPC@4 ≤ 5 μg/mL)
- AZT MPC4 CTX-M-15 KP1009 [3, 29]: X (X = MPC@4 ≤ 5 μg/mL)
- TIG MPC4 CTX-M-14 KP1005 [4]: X (key: X = MPC@4 ≤ 5 μg/mL; Y = 5 μg/mL < MPC@4 ≤ 20 μg/mL; Z = MPC@4 > 20 μg/mL)
- AZT MPC4 SHV-5 ec308 [5, 29]: X (X = MPC@4 ≤ 5 μg/mL)
- AZT MPC4 CMY-6 EC1010 [6]: X (key: X = MPC@4 ≤ 5 μg/mL; Y = 5 μg/mL < MPC@4 ≤ 20 μg/mL; Z = MPC@4 > 20 μg/mL)
- PAM1154/KPC-2 Biapenem MPC64 [7]: 0.6
- MPM MPC8 AB1053 OXA-72 [8]: X (X = MPC@1 ≤ 5 μg/mL)
- AZT MPC4 SHV-12 KP1010 [9]: X (key: X = MPC@4 ≤ 5 μg/mL; Y = 5 μg/mL < MPC@4 ≤ 20 μg/mL; Z = MPC@4 > 20 μg/mL)
- Ki (KPC-2, NCF), uM [10]: X (key: X = Ki ≤ 0.1 μM; Y = 0.1 μM < Ki ≤ 1 μM; Z = Ki > 1 μM)
- Ki (P99, NCF), uM [11]: X (key: X = Ki ≤ 0.1 μM; Y = 0.1 μM < Ki ≤ 1 μM; Z = Ki > 1 μM)
- Ki (OXA-48, NCF), uM [12]: X (key: X = Ki ≤ 0.1 μM; Y = 0.1 μM < Ki ≤ 1 μM; Z = Ki > 1 μM)
- Ki [13]: < 100 nM
- Ki [14]: < 100 nM
- Ki [15]: < 100 nM
- Ki (CTX-M-14, NCF), uM [16]: X (key: X = Ki ≤ 0.1 μM; Y = 0.1 μM < Ki ≤ 1 μM; Z = Ki > 1 μM)
- PAM1032/KPC-2 Biapenem MPC64 [17]: 2.5
- AZT MPC4 TEM-10 ec302 [18, 29]: X (X = MPC@4 ≤ 5 μg/mL)
- AZT MPC4 KPC-2 KP1004 [19]: X (key: X = MPC@4 ≤ 5 μg/mL; Y = 5 μg/mL < MPC@4 ≤ 20 μg/mL; Z = MPC@4 > 20 μg/mL)
- BPM MPC1 KP1004 KPC-2 [20]: X (X = MPC@1 ≤ 5 μg/mL)
- MPM MPC8 AB1054 OXA-23 [21]: X (key: X = MPC@1 ≤ 5 μg/mL; Y = 5 μg/mL < MPC@1 ≤ 20 μg/mL; Z = MPC@1 > 20 μg/mL)

SMILES: C[C@H]1[C@H](NC(=O)/C(=N\OC(C)(C)C(=O)O)c2csc(N)n2)C(=O)N1S(=O)(=O)O [Aztreonam, reference compound]
- MIC ([3]; read-out: Aztreonam MIC): > 128 µg/mL
- MIC ([5]; read-out: Aztreonam MIC): > 128 µg/mL
- MIC ([6]; read-out: Aztreonam MIC): > 128 µg/mL
- MIC [22]: > 128 µg/mL
- MIC ([9]; read-out: Aztreonam MIC): 64 µg/mL
- MIC ([18]; read-out: Aztreonam MIC): 128 µg/mL
- MIC ([19]; read-out: Aztreonam MIC): > 128 µg/mL

SMILES: CC1(C)[C@H](NC(=O)/C(=N\OCC(=O)O)c2csc(N)n2)C(=O)N1OS(=O)(=O)O [Tigemonam, reference compound]
- Tigemonam MIC [23]: 32 µg/mL
- Tigemonam MIC [24]: >64 µg/mL
- Tigemonam MIC [4]: >64 µg/mL
- Tigemonam MIC [25]: >64 µg/mL
- Tigemonam MIC [26]: 16 µg/mL
- Tigemonam MIC [27]: >64 µg/mL
- Tigemonam MIC [28]: >64 µg/mL
